{"source": "patent US20250072441A1", "about": "“METHOD FOR PREPARING A COMESTIBLE NUTRIENT COMPOSITION AND USE THEREOF” (The Cultivated B. GmbH, priority 2022, published 2025)", "key": {"HepG2 cells [1]": {"system": "HepG2 cells", "conditions": "read-out: IC50, expected literature value reported in the manual for the Neutral Red Assay; cited from earlier work"}, "HepG2 cells [2]": {"system": "HepG2 cells", "assay": "Neutral Red Assay, cell viability/cytotoxicity", "type": "cell-based", "conditions": "Homo sapiens, 48 h, 2 days after compound addition, n=3", "description": "It is a cellular assay that is based on a eurhodin dye that stains the lysosomes of viable cells. HepG2 cells were supplied by ATCC (HB-8065), cultured in DMEM supplemented with 10% FBS and grown in a incubator set to 37° C. and 5% CO2. For both assays, cells were seeded at 5.000 cells/well in a 96-well plate using only the 32 central wells. Due to inherent clumping of HepG2 cells, amount of cells could not be properly measured and varied between assays. […] Cells were processed after 2 days of compound addition. The Neutral Red Assay Kit—Cell Viability/Cytotoxicity (ab234039, Abcam) was used. All solutions of the kit were aliquoted and stored at −20° C. as recommended. […] Cell medium was removed and cells washed with 200 μL of 1× washing solution. After addition of 150 μL of 1× Neutral Red Staining Solution, cells were stained for 2 hours in the incubator. Cells were washed with 250 μL of 1× washing solution, and then air dried for approx. 10 min until no liquid was visible on the plate. Addition of 150 μL 1× solubilization solution was followed by shaking the plate for 20 min at 500 rpm and RT. The 96-well plate was then read at a microplate reader at an OD of 540 nm."}, "HepG2 cells [3]": {"system": "HepG2 cells", "assay": "cells", "conditions": "Homo sapiens, HepG2, 48 h", "description": "This cellular assay quantitates the amount of ATP that can be correlated to cell viability. HepG2 cells were supplied by ATCC (HB-8065), cultured in DMEM supplemented with 10% FBS and grown in a incubator set to 37° C. and 5% CO2. For both assays, cells were seeded at 5.000 cells/well in a 96-well plate using only the 32 central wells. Due to inherent clumping of HepG2 cells, amount of cells could not be properly measured and varied between assays. Various concentrations of Doxorubicin were added 18 hours after seeding to the cells at a volume of 0.2 μL of cells using IDOT. Cells were processed after 2 days of compound addition. The CellTiter-Glo 2.0 Cell Viability Assay (G9242, Promega) was used. The solution was thawed and stored at 4° C. as recommended. Cell medium was removed, then cells were washed 2× in 100 μL PBS. After the last wash, 50 μL of PBS followed by 50 μL of CellTiter-Glo 2.0 reagent were added. The 96-well plate was mixed for 2 min on an orbital shaker and incubated at 10 min at RT. Luminescence was recorded at a microplate reader, using a integration time of 1.000 ms. For both assays, data for dose-response experiments was fitted with the equation “Log(agonist) vs response−Variable slope (four parameters)” using Prism."}}, "note": "Read-outs that look alike come from different tables or passages of the source.", "data": [{"compound": "COc1cccc2c1C(=O)c1c(O)c3c(c(O)c1C2=O)C[C@@](O)(C(=O)CO)C[C@@H]3O[C@H]1C[C@H](N)[C@H](O)[C@H](C)O1", "note": "[Doxorubicin]", "values": [{"measurement": "IC50", "setting": "HepG2 cells [1]", "result": 690, "unit": "nM"}, {"measurement": "IC50", "setting": "HepG2 cells [2]", "result": 79, "unit": "nM"}, {"measurement": "IC50", "setting": "HepG2 cells [3]", "result": 116, "unit": "nM"}]}]}
